Measurements reported in article PMC3722118, “Hellebrin and its aglycone form hellebrigenin display similar in vitro growth inhibitory effects in cancer cells and binding profiles to the alpha subunits of the Na^+/K^+-ATPase” (Molecular Cancer, 2013).

System: U373 GBM cells
Settings: 10 nM
Method: Computer-assisted phase contrast microscopy (quantitative videomicroscopy) analyses were used to morphologically visualize the effects induced by hellebrin (data not shown) and hellebrigenin (Figure 5) in human U373 GBM cells.
Figure 5 Computer-assisted phase-contrast microscopy (quantitative videomicroscopy) illustrations of human U373 glioblastoma cells treated with 10 nM hellebrigenin for 72 h. […] Cells were not starved during the experiments. The images provided here are representative images obtained from triplicates in each experimental condition.

C[C@]12CC[C@H]3[C@@H](CC[C@]4(O)C[C@@H](O)CC[C@]34C=O)[C@@]1(O)CC[C@@H]2c1ccc(=O)oc1 [Hellebrigenin]
U373 GBM cells died (72 h of treatment): approximately 50% | cytotoxic versus cytostatic nature (morphological analyses) (up to 72 h): cytotoxic compound and not a cytostatic one
